Literature values in patent US5116619A, “Vaginal progesterone tablet” (priority 1988, dated 1992).

SMILES: CC(=O)[C@H]1CC[C@H]2[C@@H]3CCC4=CC(=O)CC[C@]4(C)[C@H]3CC[C@]12C [progesterone, pregn-4-ene-3,20-dione]
- plasma half-life (endogenous progesterone): a few minutes
- administered radiolabeled progesterone in feces (feces): about 10%
- serum levels after oral administration (in vivo, po): significant but highly variable serum levels
- first half-life (intravenous injections): 5 to 6 min
- second half-life (intravenous injections): 42 to 45 min
- local tolerability of deep intramuscular injections (parenteral, site of injection): often very painful and irritating at the site of injection
- absorption by the rectal route (rectal, Steege et al.): highly variable
- time in which all exogenous progesterone is metabolized (suggested by Myers et al.): ≤ 24 h
- administered radiolabeled progesterone in urine (urine): 50 to 60%
